According to patent publication US8877949B2, “Furo[3,2-g]chromene compounds and uses thereof” (Shenyang Pharmaceutical University, priority 2010, dated 2014):

Columns and labels:
[1] = tested on: Osteosarcoma Cells U2OS-EGFP-4A12G; assay: Effect on the proliferation of osteosarcoma cells U2OS-EGFP-4A12G (MTT); type: cell-based; conditions: n = 3
Protocol: Cells in the logarithmic growth phase were digested with trypsin, counted with trypan blue, and prepared into a cellular suspension with a density of 1×10^4 cells/mL. The suspension was seeded in a 96-well plate, 200 μL/well, about 2×10^3 cells/well, and pre-cultured for 24 h. […] A concentration of 0 mg/mL was used as a negative control group. After subsequent cultivatation for 0 h, 12 h, 24 h or 48 h, 20 μL MTT solution (5 mg/mL) was added to each well. The cultivation was terminated after another 4 h incubation. The supernatant in each well was sucked out carefully, and 150 μL of dimethyl sulfoxide (DMSO) was added to each well. The plate was shaken for 10 min, so that formazan was dissolved thoroughly. The absorption value (A value) of each well was measured using an enzyme linked immunosorbent detector, at a selected wavelength of 490 nm. The measurement was repeated for 5 times.

[2] = tested on: Ovarian Cancer Cells SKOV3; assay: Effect on the proliferation of ovarian cancer cells SKOV3 (MTT); type: cell-based
Protocol: Cells in the logarithmic growth phase were digested with trypsin, added to a 96-well plate, in a density of 6×10^3 cells/well, and cultured in a 37° C., 5% CO2 incubator. The next day, the plated was transferred to and kept in a 4° C. incubator for 1 h after the adherence of most cells, so as to achieve synchronized growth of the cells. The supernatant was sucked out, and a RPMI 1640 medium containing 10% fetal calf serum (FCS) was added, 200 μL/well. The cells were grouped according to the design of the experiment. The injectable solution of the compound prepared with sterile physiological saline was added to the 96 wells, 200 μL/well, so that the concentrate of the medicament in each well were 1 mg/mL, 2 mg/mL and 5 mg/mL, respectively. A concentration of 0 mg/mL was used as a negative control group. After subsequent cultivation for 24, 48, or 72 h, 20 μL MTT solution (with a concentration of 5 mg/mL) was added to each well, respectively. The plate was shaken gently, returned to the incubator and incubated for another 4 h. Then the supernatant was sucked out completely, and 200 μL of dimethyl sulfoxide was added to each well. The plate was shaken for 5-10 min on a shaker. The absorption (A=580) of each well at a wavelength of 580 nm was measured using a microplate reader. The A=580 value was proportional to the number of live cells.

SMILES | melting point | IC50 [1] | IC50 ([2]; Homo sapiens, SK-OV-3, n = 3) | IC50 ([2]; n = 3)
O=C(c1ccc(Br)cc1)c1oc2cc3c(cc2c1-c1ccc(OCCN2CCCCC2)cc1)CCCO3 [Example 42, 2-(4-bromobenzoyl)-3-[4-(piperidinoethoxy)phenyl]-6,7-dihydrogen-5H-furo[3,2-g]chromene] | – | 13.3 µM | 32.8 µM | –
CCN(CC)CCOc1ccc(-c2c(C(=O)c3ccc(Cl)cc3)oc3cc4c(cc23)CCCO4)cc1 [Example 31, 2-(4-chlorobenzoyl)-3-[4-(diethylaminoethoxy)phenyl]-6,7-dihydrogen-5H-furo[3,2-g]chromene] | – | 36.1 µM | 8.5 µM | –
O=C(c1ccc(Br)cc1)c1oc2cc3c(cc2c1-c1ccc(OCCN2CCOCC2)cc1)CCCO3 [Example 41, 2-(4-bromobenzoyl)-3-[4-(morpholinoethoxy)phenyl]-6,7-dihydrogen-5H-furo[3,2-g]chromene] | – | 5 µM | 42.5 µM | –
O=C(c1ccc(OCCN2CCCCC2)cc1)c1oc2cc3c(cc2c1-c1ccc(O)cc1)CCCO3 [Example 55, 2-[4-(piperidinoethoxy)benzoyl]-3-(4-hydroxyphenyl)-6,7-dihydrogen-5H-furo[3,2-g]chromene] | – | 10.8 µM | – | 13.6 µM
O=C(c1ccc(Cl)cc1)c1oc2cc3c(cc2c1-c1ccc(OCCN2CCCCC2)cc1)CCCO3 [Example 30, 2-(4-chlorobenzoyl)-3-[4-(piperidinoethoxy)phenyl]-6,7-dihydrogen-5H-furo[3,2-g]chromene] | – | 26.3 µM | – | 72.2 µM
CCN(CC)CCOc1ccc(-c2c(C(=O)c3ccc(C)cc3)oc3cc4c(cc23)CCCO4)cc1 [Example 35, 2-(4-methylbenzoyl)-3-[4-(diethylaminoethoxy)phenyl]-6,7-dihydrogen-5H-furo[3,2-g]chromene] | – | 5.8 µM | 29.7 µM | –

Results, then the molecule that gave them:

melting point | IC50 [1] | IC50 ([2]; Homo sapiens, SK-OV-3, n = 3) | IC50 ([2]; n = 3) | SMILES
130.3 to 132.5 °C | – | – | – | COc1ccc(C(=O)c2oc3cc4c(cc3c2-c2ccccc2)CCCO4)cc1 [Example 2, 2-(4-methoxybenzoyl)-3-phenyl-6,7-dihydrogen-5H-furo[3,2-g]chromene]
– | 5.5 µM | 14.5 µM | – | CCN(CC)CCOc1ccc(C(=O)c2oc3cc4c(cc3c2-c2ccc(OC)cc2)CCCO4)cc1 [Example 50, 2-[4-(diethylaminoethoxy)benzoyl]-3-(4-methoxyphenyl)-6,7-dihydrogen-5H-furo[3,2-g]chromene]
106.3 to 108.5 °C | – | – | – | COc1ccc(-c2c(C(=O)c3ccccc3)oc3cc4c(cc23)CCCO4)cc1 [Example 1, 2-benzoyl-3-(4-methoxyphenyl)-6,7-dihydrogen-5H-furo[3,2-g]chromene]
– | 21.7 µM | – | – | COc1ccc(-c2c(C(=O)c3ccc(Cl)cc3)oc3cc4c(cc23)CCCO4)cc1 [Example 3, 2-(4-chlorobenzoyl)-3-(4-methoxyphenyl)-6,7-dihydrogen-5H-furo[3,2-g]chromene]
– | 13.7 µM | 0.8 µM | – | O=C(c1ccccc1)c1oc2cc3c(cc2c1-c1ccc(O)cc1)CCCO3 [Example 7, 2-benzoyl-3-(4-hydroxyphenyl)-6,7-dihydrogen-5H-furo[3,2-g]chromene]
– | 16.5 µM | – | 28.2 µM | CCN(CC)CCOc1ccc(-c2c(C(=O)c3ccccc3)oc3cc4c(cc23)CCCO4)cc1 [Example 21, 2-benzoyl-3-[4-(diethylaminoethoxy)phenyl]-6,7-dihydrogen-5H-furo[3,2-g]chromene]
– | 5.1 µM | 14.5 µM | – | COc1ccc(-c2c(C(=O)c3ccc(OCCN4CCCCC4)cc3)oc3cc4c(cc23)CCCO4)cc1 [Example 48, 2-[4-(piperidinoethoxy)benzoyl]-3-(4-methoxyphenyl)-6,7-dihydrogen-5H-furo[3,2-g]chromene]
– | 15.6 µM | 19 µM | – | CN(C)CCOc1ccc(-c2c(C(=O)c3ccc(Br)cc3)oc3cc4c(cc23)CCCO4)cc1 [Example 44, 2-(4-bromobenzoyl)-3-[4-(dimethylaminoethoxy)phenyl]-6,7-dihydrogen-5H-furo[3,2-g]chromene]
– | 7.7 µM | 10.3 µM | – | Cc1ccc(C(=O)c2oc3cc4c(cc3c2-c2ccc(OCCN(C)C)cc2)CCCO4)cc1 [Example 36, 2-(4-methylbenzoyl)-3-[4-(dimethylaminoethoxy)phenyl]-6,7-dihydrogen-5H-furo[3,2-g]chromene]
